Test results as given in ChEMBL document CHEMBL6127049, “Discovery of the selective and nanomolar inhibitor of DPP-4 more potent than sitagliptin by structure-guided rational design” (Eur J Med Chem, 2024).
Calls of active or inactive are those of the source. The rule behind the calls is not given here.

Key:
Rattus norvegicus [1] = experiment: Antihyperlipidemic effect in STZ-induced type 2 diabetes male Wistar albino rat model assessed as HDL level at 0.5 mg/kg, po measured after 4 weeks (reference value: 25.54 +/- 2.62 mg/dL); format: functional
Rattus norvegicus [2] = experiment: Antihyperlipidemic effect in STZ-induced type 2 diabetes male Wistar albino rat model assessed as LDL level at 0.5 mg/kg, po measured after 4 weeks (reference value: 184.65 +/- 4.57 mg/dL); format: functional
Rattus norvegicus [3] = experiment: Antihyperlipidemic effect in STZ-induced type 2 diabetes male Wistar albino rat model assessed as total cholesterol level at 0.5 mg/kg, po measured after 4 weeks (reference value: 227.04 +/- 4.10 mg/dL); format: functional
Rattus norvegicus [4] = experiment: Antihyperlipidemic effect in STZ-induced type 2 diabetes male Wistar albino rat model assessed as triglyceride level at 0.5 mg/kg, po measured after 4 weeks (reference value: 190.23 +/- 4.37 mg/dL); format: functional
Rattus norvegicus [5] = species on record: Rattus norvegicus; experiment: Anti-diabetic activity in STZ-induced type 2 diabetes male Wistar albino rat model assessed as fasting blood glucose level measured on day 1; format: functional
Rattus norvegicus [6] = experiment: Reduction of serum glutamate pyruvate transaminase (SGPT) level in STZ-induced type 2 diabetes male Wistar albino rat model at 20 mg/kg, po measured after 4 weeks by hepatic function test; format: functional, organism-based
Rattus norvegicus [7] = experiment: Anti-diabetic activity in normal Wistar rat model assessed as blood glucose level at 10 mg/kg, po followed by treated administered 3 mg/kg orally measured after 60 mins by Oral glucose tolerance test (reference value: 153.74 + /- 3.94 mg/dL); format: functional; conditions: 1 h
[8] = Acute toxicity in Balb/C mouse assessed as morphological changes in convulsions at 1250 to 2000 mg/kg, po; format: organism-based; conditions: in vivo, dose 1250-2000 mg/kg
Rattus norvegicus [9] = experiment: Anti-diabetic activity in normal Wistar rat model assessed as blood glucose level at 10 mg/kg, po followed by treated administered 3 mg/kg orally measured after 120 mins by Oral glucose tolerance test (reference value: 126.5 + /- 3.90 mg/dL); format: functional; conditions: 2 h
Rattus norvegicus [10] = experiment: Anti-diabetic activity in normal Wistar rat model assessed as blood glucose level at 20 mg/kg, po followed by treated administered 3 mg/kg orally measured after 90 mins by Oral glucose tolerance test (reference value: 134.11 + /- 4.64 mg/dL); format: functional; conditions: 1.5 h
[11] = Acute toxicity in Balb/C mouse assessed as morphological changes in tremors at 1250 to 2000 mg/kg, po; format: organism-based; conditions: in vivo, dose 1250-2000 mg/kg
Dipeptidyl peptidase 9 = Dipeptidyl peptidase 9 (Homo sapiens, UniProt Q86TI2); experiment: Inhibition of DPP9 (unknown origin) assessed as hydrolysis rate using Gly-pro-p-nitroanilide as substrate measured after 20 mins incubation by […] assay
Dipeptidyl peptidase 9, sequence (Q86TI2 whole entry): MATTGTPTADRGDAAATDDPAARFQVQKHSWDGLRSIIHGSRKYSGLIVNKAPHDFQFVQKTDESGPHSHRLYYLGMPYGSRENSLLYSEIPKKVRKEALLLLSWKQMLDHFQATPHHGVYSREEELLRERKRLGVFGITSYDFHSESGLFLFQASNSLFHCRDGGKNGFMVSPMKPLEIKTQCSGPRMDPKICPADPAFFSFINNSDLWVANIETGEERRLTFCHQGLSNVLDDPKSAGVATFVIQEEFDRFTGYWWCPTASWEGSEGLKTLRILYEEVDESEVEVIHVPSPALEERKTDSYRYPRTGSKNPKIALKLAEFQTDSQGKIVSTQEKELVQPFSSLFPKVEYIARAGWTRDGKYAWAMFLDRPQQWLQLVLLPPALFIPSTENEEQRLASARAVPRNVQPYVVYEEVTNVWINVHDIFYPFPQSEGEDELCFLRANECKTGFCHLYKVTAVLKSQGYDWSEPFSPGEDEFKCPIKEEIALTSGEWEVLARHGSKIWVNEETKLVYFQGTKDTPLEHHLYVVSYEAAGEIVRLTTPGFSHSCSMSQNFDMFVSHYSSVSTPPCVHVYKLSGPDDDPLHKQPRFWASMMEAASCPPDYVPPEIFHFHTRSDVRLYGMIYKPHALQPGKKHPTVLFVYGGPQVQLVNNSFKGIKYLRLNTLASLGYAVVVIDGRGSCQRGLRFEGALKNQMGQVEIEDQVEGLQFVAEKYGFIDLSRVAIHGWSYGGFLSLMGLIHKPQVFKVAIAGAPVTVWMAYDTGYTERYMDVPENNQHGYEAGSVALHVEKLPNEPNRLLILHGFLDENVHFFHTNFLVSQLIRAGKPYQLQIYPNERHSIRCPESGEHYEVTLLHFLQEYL

[12] = Acute toxicity in Balb/C mouse assessed as morphological changes in nose at 1250 to 2000 mg/kg, po; format: organism-based; conditions: in vivo, dose 1250-2000 mg/kg
[13] = Acute toxicity in Balb/C mouse assessed as morphological changes in unusual behavior at 1250 to 2000 mg/kg, po; format: organism-based; conditions: in vivo, dose 1250-2000 mg/kg
Rattus norvegicus [14] = experiment: Anti-diabetic activity in normal Wistar rat model assessed as blood glucose level at 20 mg/kg, po followed by treated administered 3 mg/kg orally measured after 30 mins by Oral glucose tolerance test (reference value: 176.14 + /- 4.04 mg/dL); format: functional; conditions: 0.5 h
Rattus norvegicus [15] = experiment: Anti-diabetic activity in normal Wistar rat model assessed as blood glucose level at 20 mg/kg, po followed by treated administered 3 mg/kg orally measured after 60 mins by Oral glucose tolerance test (reference value: 153.74 + /- 3.94 mg/dL); format: functional; conditions: 1 h
Rattus norvegicus [16] = experiment: Reduction of alkaline phosphatase (ALP) level in STZ-induced type 2 diabetes male Wistar albino rat model at 20 mg/kg, po measured after 4 weeks by hepatic function test; format: functional, organism-based
Rattus norvegicus [17] = experiment: Antihyperlipidemic effect in STZ-induced type 2 diabetes male Wistar albino rat model assessed as total cholesterol level at 10 mg/kg, po measured after 4 weeks (reference value: 227.04 +/- 4.10 mg/dL); format: functional
Rattus norvegicus [18] = experiment: Antihyperlipidemic effect in STZ-induced type 2 diabetes male Wistar albino rat model assessed as triglyceride level at 20 mg/kg, po measured after 4 weeks (reference value: 190.23 +/- 4.37 mg/dL); format: functional
Rattus norvegicus [19] = experiment: Antihyperlipidemic effect in STZ-induced type 2 diabetes male Wistar albino rat model assessed as triglyceride level at 10 mg/kg, po measured after 4 weeks (reference value: 190.23 +/- 4.37 mg/dL); format: functional
Rattus norvegicus [20] = experiment: Reduction of serum glutamate pyruvate transaminase (SGPT) level in STZ-induced type 2 diabetes male Wistar albino rat model at 10 mg/kg, po measured after 4 weeks by hepatic function test; format: functional, organism-based
Rattus norvegicus [21] = experiment: Antihyperlipidemic effect in STZ-induced type 2 diabetes male Wistar albino rat model assessed as LDL level at 20 mg/kg, po measured after 4 weeks (reference value: 184.65 +/- 4.57 mg/dL); format: functional
Dipeptidyl peptidase 4 = Dipeptidyl peptidase 4 (Homo sapiens, UniProt P27487); experiment: Inhibition of DPP4 (unknown origin) assessed as hydrolysis rate using Gly-pro-p-nitroanilide as substrate measured after 20 mins incubation by fluorometric assay
Dipeptidyl peptidase 4, sequence (P27487 whole entry): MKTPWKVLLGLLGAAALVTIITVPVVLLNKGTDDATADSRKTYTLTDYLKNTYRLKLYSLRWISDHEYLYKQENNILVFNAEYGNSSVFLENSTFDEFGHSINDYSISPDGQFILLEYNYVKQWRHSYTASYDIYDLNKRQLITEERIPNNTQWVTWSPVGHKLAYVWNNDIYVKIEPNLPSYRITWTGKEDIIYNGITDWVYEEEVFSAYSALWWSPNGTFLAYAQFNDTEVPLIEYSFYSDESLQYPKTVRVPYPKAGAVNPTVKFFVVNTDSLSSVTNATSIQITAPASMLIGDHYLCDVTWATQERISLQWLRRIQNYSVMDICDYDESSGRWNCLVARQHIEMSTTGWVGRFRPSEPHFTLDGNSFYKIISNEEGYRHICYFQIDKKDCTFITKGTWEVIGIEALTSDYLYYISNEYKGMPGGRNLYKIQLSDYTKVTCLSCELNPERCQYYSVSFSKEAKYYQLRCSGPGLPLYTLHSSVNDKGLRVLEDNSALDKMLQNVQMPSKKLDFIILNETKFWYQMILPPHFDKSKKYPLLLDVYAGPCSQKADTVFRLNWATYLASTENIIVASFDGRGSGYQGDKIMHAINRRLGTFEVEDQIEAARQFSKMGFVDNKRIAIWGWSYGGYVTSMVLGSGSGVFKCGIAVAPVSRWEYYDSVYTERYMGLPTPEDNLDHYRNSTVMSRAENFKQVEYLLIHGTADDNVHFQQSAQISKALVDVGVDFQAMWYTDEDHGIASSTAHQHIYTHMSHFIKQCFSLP

Rattus norvegicus [22] = experiment: Anti-diabetic activity in normal Wistar rat model assessed as blood glucose level at 20 mg/kg, po followed by treated administered 3 mg/kg orally measured immediately after administration by Oral glucose tolerance test (reference value: 105.12 mg/dL); format: functional
Rattus norvegicus [23] = experiment: Antihyperlipidemic effect in STZ-induced type 2 diabetes male Wistar albino rat model assessed as LDL level at 10 mg/kg, po measured after 4 weeks (reference value: 184.65 +/- 4.57 mg/dL); format: functional
Rattus norvegicus [24] = experiment: Reduction of serum glutamate oxaloacetate transaminase (SGOT) level in STZ-induced type 2 diabetes male Wistar albino rat model at 10 mg/kg, po measured after 4 weeks by hepatic function test; format: functional, organism-based
[25] = Acute toxicity in Balb/C mouse assessed as morphological changes in skin at 1250 to 2000 mg/kg, po; format: organism-based; conditions: in vivo, dose 1250-2000 mg/kg
Rattus norvegicus [26] = experiment: Reduction of serum glutamate oxaloacetate transaminase (SGOT) level in STZ-induced type 2 diabetes male Wistar albino rat model at 20 mg/kg, po measured after 4 weeks by hepatic function test; format: functional, organism-based
[27] = Acute toxicity in Balb/C mouse assessed as morphological changes in salvation at 1250 to 2000 mg/kg, po; format: organism-based; conditions: in vivo, dose 1250-2000 mg/kg
[28] = Acute toxicity in Balb/C mouse assessed as changes in general appearance at 1250 to 2000 mg/kg, po; format: organism-based; conditions: in vivo, dose 1250-2000 mg/kg
Rattus norvegicus [29] = experiment: Reduction of alkaline phosphatase (ALP) level in STZ-induced type 2 diabetes male Wistar albino rat model at 10 mg/kg, po measured after 4 weeks by hepatic function test; format: functional, organism-based
Rattus norvegicus [30] = experiment: Anti-diabetic activity in normal Wistar rat model assessed as blood glucose level at 10 mg/kg, po followed by treated administered 3 mg/kg orally measured immediately after administration by Oral glucose tolerance test (reference value: 105.12 mg/dL); format: functional
Dipeptidyl peptidase 8 = Dipeptidyl peptidase 8 (Homo sapiens, UniProt Q6V1X1); experiment: Inhibition of DPP8 (unknown origin) assessed as hydrolysis rate using Gly-pro-p-nitroanilide as substrate measured after 20 mins incubation by […] assay
Dipeptidyl peptidase 8, sequence (Q6V1X1 whole entry): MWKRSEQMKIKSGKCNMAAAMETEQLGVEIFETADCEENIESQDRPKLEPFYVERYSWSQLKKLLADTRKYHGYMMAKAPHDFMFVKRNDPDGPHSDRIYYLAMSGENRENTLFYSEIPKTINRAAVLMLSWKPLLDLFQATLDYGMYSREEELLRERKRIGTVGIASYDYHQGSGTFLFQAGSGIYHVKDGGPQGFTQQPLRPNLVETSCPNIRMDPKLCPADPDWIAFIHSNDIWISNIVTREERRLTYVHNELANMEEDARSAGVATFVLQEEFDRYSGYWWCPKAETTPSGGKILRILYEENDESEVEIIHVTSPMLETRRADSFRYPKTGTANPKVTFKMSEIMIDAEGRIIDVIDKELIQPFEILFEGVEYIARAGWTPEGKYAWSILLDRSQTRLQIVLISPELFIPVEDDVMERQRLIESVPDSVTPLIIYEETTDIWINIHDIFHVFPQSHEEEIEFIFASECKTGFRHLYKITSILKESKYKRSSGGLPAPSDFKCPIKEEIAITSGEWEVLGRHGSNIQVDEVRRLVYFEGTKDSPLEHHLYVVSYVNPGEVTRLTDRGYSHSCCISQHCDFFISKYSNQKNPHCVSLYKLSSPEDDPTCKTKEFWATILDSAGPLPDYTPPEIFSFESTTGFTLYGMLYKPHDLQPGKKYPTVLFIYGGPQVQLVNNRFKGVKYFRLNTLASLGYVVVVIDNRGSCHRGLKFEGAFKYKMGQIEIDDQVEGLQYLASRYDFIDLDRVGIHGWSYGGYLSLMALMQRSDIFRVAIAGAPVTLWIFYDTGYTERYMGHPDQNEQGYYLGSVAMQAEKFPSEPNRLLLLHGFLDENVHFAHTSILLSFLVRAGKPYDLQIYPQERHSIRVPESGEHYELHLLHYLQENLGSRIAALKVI

[31] = Acute toxicity in Balb/C mouse assessed as morphological changes in fur at 1250 to 2000 mg/kg, po; format: organism-based; conditions: in vivo, dose 1250-2000 mg/kg
Rattus norvegicus [32] = experiment: Antihyperlipidemic effect in STZ-induced type 2 diabetes male Wistar albino rat model assessed as HDL level at 10 mg/kg, po measured after 4 weeks (reference value: 25.54 +/- 2.62 mg/dL); format: functional
[33] = Acute toxicity in Balb/C mouse assessed as morphological changes in eyes at 1250 to 2000 mg/kg, po; format: organism-based; conditions: in vivo, dose 1250-2000 mg/kg
Rattus norvegicus [34] = experiment: Antihyperlipidemic effect in STZ-induced type 2 diabetes male Wistar albino rat model assessed as HDL level at 20 mg/kg, po measured after 4 weeks (reference value: 25.54 +/- 2.62 mg/dL); format: functional
[35] = Acute toxicity in Balb/C mouse assessed as morphological changes in diarrhea at 1250 to 2000 mg/kg, po; format: organism-based; conditions: in vivo, dose 1250-2000 mg/kg
Rattus norvegicus [36] = experiment: Anti-diabetic activity in normal Wistar rat model assessed as blood glucose level at 20 mg/kg, po followed by treated administered 3 mg/kg orally measured after 120 mins by Oral glucose tolerance test (reference value: 126.5 + /- 3.90 mg/dL); format: functional; conditions: 2 h
Rattus norvegicus [37] = species on record: Rattus norvegicus; experiment: Anti-diabetic activity in STZ-induced type 2 diabetes male Wistar albino rat model assessed as fasting blood glucose level measured on day 28; format: functional
Rattus norvegicus [38] = experiment: Anti-diabetic activity in normal Wistar rat model assessed as blood glucose level at 10 mg/kg, po followed by treated administered 3 mg/kg orally measured after 90 mins by Oral glucose tolerance test (reference value: 134.11 + /- 4.64 mg/dL); format: functional; conditions: 1.5 h
Rattus norvegicus [39] = experiment: Antihyperlipidemic effect in STZ-induced type 2 diabetes male Wistar albino rat model assessed as total cholesterol level at 20 mg/kg, po measured after 4 weeks (reference value: 227.04 +/- 4.10 mg/dL); format: functional
Rattus norvegicus [40] = experiment: Anti-diabetic activity in normal Wistar rat model assessed as blood glucose level at 10 mg/kg, po followed by treated administered 3 mg/kg orally measured after 30 mins by Oral glucose tolerance test (reference value: […] 176.14 + /- 4.04 mg/dL); format: functional; conditions: 0.5 h
Rattus norvegicus [41] = experiment: Reduction of serum creatinine level in STZ-induced type 2 diabetes male Wistar albino rat model at 10 mg/kg, po measured after 4 weeks by hepatic function test; format: functional, organism-based
Rattus norvegicus [42] = experiment: Reduction of serum creatinine level in STZ-induced type 2 diabetes male Wistar albino rat model at 20 mg/kg, po measured after 4 weeks by hepatic function test; format: functional, organism-based

Structure (SMILES): COc1ccc(Cl)cc1C(=O)NCCc1ccc(S(=O)(=O)NC(=O)NC2CCCCC2)cc1 [GLYBURIDE]
- Activity (Rattus norvegicus [1]): 66.6 mg/dL
- Activity (Rattus norvegicus [2]): 97.55 mg/dL
- Activity (Rattus norvegicus [3]): 123.65 mg/dL
- Activity (Rattus norvegicus [4]): 106.87 mg/dL

Structure (SMILES): CC1=C(C(=O)O)C(c2ccc(F)c(F)c2)N=C(N)N1C(=O)CN1Cc2cn(S(C)(=O)=O)nc2C1 (stereo not given)
- Activity (Rattus norvegicus [5]): 291 mg/dL
- Activity (Rattus norvegicus [6]): Active
- Activity (Rattus norvegicus [7]): 121.54 mg/dL
- Activity [8]: Non-Toxic
- Activity (Rattus norvegicus [9]): 108.68 mg/dL
- Activity (Rattus norvegicus [10]): 116.56 mg/dL
- Activity [11]: Non-Toxic
- IC50 (Dipeptidyl peptidase 9): 2840 nM
- Activity [12]: Non-Toxic
- Activity [13]: Non-Toxic
- Activity (Rattus norvegicus [14]): 116.78 mg/dL
- Activity (Rattus norvegicus [15]): 114.26 mg/dL
- Activity (Rattus norvegicus [16]): Active
- Activity (Rattus norvegicus [17]): 152.34 mg/dL
- Activity (Rattus norvegicus [18]): 117.23 mg/dL
- Activity (Rattus norvegicus [19]): 146.34 mg/dL
- Activity (Rattus norvegicus [20]): Active
- Activity (Rattus norvegicus [21]): 114.67 mg/dL
- IC50 (Dipeptidyl peptidase 4): 2 nM
- Activity (Rattus norvegicus [22]): 100.83 mg/dL
- Activity (Rattus norvegicus [23]): 131.65 mg/dL
- Activity (Rattus norvegicus [24]): Active
- Activity [25]: Non-Toxic
- Activity (Rattus norvegicus [26]): Active
- Activity [27]: Non-Toxic
- Activity [28]: Non-Toxic
- Activity (Rattus norvegicus [29]): Active
- Activity (Rattus norvegicus [30]): 103.52 mg/dL
- IC50 (Dipeptidyl peptidase 8): 3320 nM
- Activity [31]: Non-Toxic
- Activity (Rattus norvegicus [32]): 45.9 mg/dL
- Activity [33]: Non-Toxic
- Activity (Rattus norvegicus [34]): 53.56 mg/dL
- Activity [35]: Non-Toxic
- Activity (Rattus norvegicus [36]): 109.75 mg/dL
- Activity (Rattus norvegicus [37]): 141 mg/dL
- Activity (Rattus norvegicus [38]): 110.22 mg/dL
- Activity (Rattus norvegicus [39]): 138.76 mg/dL
- Activity (Rattus norvegicus [40]): 119.65 mg/dL

Structure (SMILES): CC1=C(C(=O)O)C(c2ccc(F)c(F)c2)N=C(N)N1C(=O)CN1CCn2c(nnc2C(F)(F)F)C1 (stereo not given)
- Activity (Rattus norvegicus [6]): Active
- Activity (Rattus norvegicus [7]): 113.74 mg/dL
- Activity (Rattus norvegicus [9]): 126.68 mg/dL
- Activity (Rattus norvegicus [10]): 110.82 mg/dL
- Activity (Rattus norvegicus [41]): Active
- Activity (Rattus norvegicus [14]): 114.05 mg/dL
- Activity (Rattus norvegicus [42]): Active
- Activity (Rattus norvegicus [15]): 112.43 mg/dL
- Activity (Rattus norvegicus [16]): Active
- Activity (Rattus norvegicus [17]): 148.1 mg/dL
- Activity (Rattus norvegicus [18]): 113.65 mg/dL
- Activity (Rattus norvegicus [19]): 141.45 mg/dL
- Activity (Rattus norvegicus [20]): Active
- Activity (Rattus norvegicus [21]): 105.65 mg/dL
- IC50 (Dipeptidyl peptidase 4): 116 nM
- Activity (Rattus norvegicus [22]): 101.26 mg/dL
- Activity (Rattus norvegicus [23]): 121.78 mg/dL
- Activity (Rattus norvegicus [24]): Active
- Activity (Rattus norvegicus [26]): Active
- Activity (Rattus norvegicus [29]): Active
- Activity (Rattus norvegicus [30]): 103.12 mg/dL
- Activity (Rattus norvegicus [32]): 48.67 mg/dL
- Activity (Rattus norvegicus [34]): 59.54 mg/dL
- Activity (Rattus norvegicus [36]): 107.18 mg/dL
- Activity (Rattus norvegicus [38]): 134.23 mg/dL
- Activity (Rattus norvegicus [39]): 134.27 mg/dL
- Activity (Rattus norvegicus [40]): 117.53 mg/dL
